Where “and” joins values, the source holds several entries; their conditions need not be identical. Equal entries are not always repeated.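 A five-concentration, 48-hour dose response in 96-well plates underlies each endpoint, interpolated linearly between surrounding concentrations. Abbreviation: GI50, concentration required for 50% inhibition of growth. The concentration for full growth arrest is given as TGI.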
Experiments:
Experiment in all cases: DTP human tumour cell line panel, 48 h
[1] = system: NCI-H460 lung
[2] = system: SN12C renal
[3] = system: SW-620 colon
[4] = system: MOLT-4 leukemia
[5] = system: MDA-MB-231 breast
[6] = system: HCT-15 colon
[7] = system: SK-MEL-28 melanoma
[8] = system: NCI-H522 lung
[9] = system: NCI/ADR-RES ovarian
[10] = system: UACC-257 melanoma

Structure (SMILES)	GI50 [1] [µM]	TGI [1]	GI50 [2] [µM]	TGI [2] [µM]	GI50 [3] [µM]	TGI [3]	GI50 [4] [µM]	TGI [4]	GI50 [5] [µM]	TGI [5] [µM]	GI50 [6] [µM]	TGI [6]	GI50 [7] [µM]	TGI [7]	GI50 [8] [µM]	TGI [8]	GI50 [9] [µM]	TGI [9]	GI50 [10] [µM]	TGI [10]
CC(C)(C)[Si](C)(C)OC1[C@@H](CNC(=O)NC(=O)CCl)O[C@@H](n2cnc3c(N)ncnc32)[C@H]1O[Si](C)(C)C(C)(C)C (some centres not stated)	1.24	3.21 µM	0.821	1.88	0.891	1.77 µM	0.53	1.73 µM	0.905	1.71	0.832	1.67 µM	1.4	4.12 µM	0.718	1.61 µM	1.18	3.11 µM	2.65	6.93 µM
Nc1cc(Br)c(-c2nnc(CCC(=O)c3nc4ccccc4[nH]3)o2)c(Br)c1	3.99	20.1 µM	29.5	> 100	3.28	> 100 µM	4.94	> 100 µM	10.1	86.8	> 100	> 100 µM	6.31	79 µM	2.9	16.9 µM	22.6	> 100 µM	7.63	> 100 µM
COc1cc2c(Nc3cc(Cl)c(OC)c(Cl)c3)c(C#N)cnc2cc1OCCCN1CCN(C)CC1	1.91	8.47 µM	0.95	17.2	2.18	6.03 µM	1.67	7.92 µM	2.6	5.2	1.32	12.1 µM	1.97	4.53 µM	0.365	2.17 µM	2.46	9.55 µM	1.67	3.07 µM
COc1ccc(-c2nccn2-c2ccc(OC)cc2)cc1	17.9	60.7 µM	20.8	50.3	25	> 100 µM	27.4	89.4 µM	16.4	57.5	23.1	> 67.2 µM	19.1	60.6 µM	17	42.9 µM	20.5	49.4 µM	26	> 88 µM
CCCc1cc(=O)n2c(C(=O)Nc3ccc(Cl)cc3C)c(C(=O)Nc3ccc(F)cc3)sc2n1	20.8	> 150 µM			6.45	61.4 µM	3.99	22.2 µM	0.698	3.08	9.4	> 150 µM	8.07	46 µM	9.18	67.5 µM	10.6	59.7 µM	7.56	42.4 µM
CCN(CC)CCCCCCNc1cccc2cc(Br)cnc12	4.25	16.5 µM	5.92	21	3.41	14.7 µM	3.06	12.1 µM	1.59	4.64	2.95	10.9 µM	2.82	6.76 µM	1.88	4.97 µM	4.88	20.3 µM	3.28	9.36 µM
Cc1cc(Nc2nc(-c3cn(-c4ccc(Cl)cc4)nn3)nc3ccccc23)n[nH]1	5.65	36.3 µM	10.7	> 50	12.5	> 50 µM	22	> 50 µM	17.7	> 50	2.17	> 50 µM	21.9	> 50 µM	> 50	> 50 µM	1.58	> 50 µM	33.4	> 50 µM
COc1cc2c(cc1O)CCN[C@]21CS[C@@H]2c3c(OC(C)=O)c(C)c4c(c3[C@H](COC1=O)N1[C@@H]2[C@H]2c3c(cc(C)c(OC)c3O)C[C@@H]([C@@H]1O)N2C)OCO4		0.808 µM		3.9		0.13 µM		8.76 µM		0.0199	0.00379	0.361 µM				0.00746 µM	0.00591	2.61 µM		0.00557 µM
O=C1c2ccccc2-c2c1c1ccccc1c(=O)n2CCN1CCNCC1	0.668	> 100 µM	2.21	18.1	1.47	7.28 µM	0.253	0.688 µM	2.45	10.7	0.935	11.3 µM	5.82	27.6 µM	3.06	19.3 µM	2.55	11.4 µM	4.98	16.9 µM
COc1ccc(C(=O)c2cc(OC)c(OC)c(OC)c2)cc1OC		> 100 µM		> 100		> 100 µM		> 100 µM		> 100		> 100 µM		> 100 µM		12.3 µM		> 100 µM		> 100 µM
Cc1ccc(OCCOCCOCCOCCOc2ccc(C)n(O)c2=S)c(=S)n1O	< 0.01	7.28 µM	0.0266	> 100	< 0.0127	> 100 µM	< 0.01	> 100 µM	0.114	> 100	< 0.0104	> 100 µM	0.356	> 100 µM	0.0294	> 79.7 µM	< 0.0158	> 100 µM	0.0192	> 29.5 µM
COc1ccc(/C(C)=C(\c2ccc(OCCN3CCCCCC3)cc2)c2ccc(OC(=O)C3CCCCC3)cc2)cc1	0.592	2.1 µM	1.11	3.28	0.948	3.15 µM	0.497	2.54 µM	1.05	3	0.378	1.41 µM	1.25	3.14 µM	2.12	5.36 µM	1.61	4.78 µM	0.575	2.07 µM
C#CCOc1cccc(Nc2ncnc3c(NC(=O)C=C)cccc23)c1	27	80.4 µM	16.5	62.6	25.8	> 100 µM	19.4	> 100 µM	20.7	> 100	12.6	81.8 µM	20.6	88.6 µM	14.1	32.6 µM	19.8	98.1 µM	31.4	> 100 µM
COc1ccc(-c2nc(-c3cc(OC)cc(OC)c3)[nH]c2-c2ccc(OC)cc2)cc1	5.98	> 100 µM	> 100	> 100	54.1	> 100 µM	2.8	8.15 µM	6.82	> 100	5.04	> 100 µM	> 100	> 100 µM	3.42	59.3 µM	9.76	> 100 µM	23.8	> 100 µM
CC(C)CC(C/C=C1/CC(CO)(COC(=O)C(C)(C)C)OC1=O)CC(C)C (configuration not stated)		17.8 µM and 5.69 µM		22.2		19.4 µM and 22 µM		23.6 µM and > 41.6 µM		17.4		29.1 µM and 28.7 µM	28.7	44.7 µM and 20.8 µM		30 µM and 27 µM		35.3 µM and 29.7 µM		31.3 µM and 31 µM
COc1cc2c(/C=N\N=C(N)N)c[nH]c2cc1C	14.7	27.8 µM	11.2	37.5	16.1	29.6 µM	14.2	27.2 µM	14.7	34.1	35.8	> 100 µM			17.3	32.9 µM	22	59.4 µM	36.8	> 100 µM
Nc1ccccc1O.O.O=C(O)C1[O][Sb][O]C1C(=O)O (configuration not stated)	21.6	58.5 µM	7.7	21.3	4.48	31.2 µM	10.8	> 100 µM	23.6	> 71.7	19.9	57.1 µM	10.2	24.6 µM	2.17	6.24 µM	28.6	> 87.2 µM	14.1	28 µM
O=C(/C=C/c1ccccc1)c1ccccc1		> 10 µM		> 10		> 10 µM		> 3.16 µM		> 10		> 10 µM		> 10 µM		> 10 µM		> 10 µM		> 10 µM
O=C1Nc2ccccc2/C1=C1\CCc2cc(O)ccc21	8.7	> 25 µM	7.84	> 25	8.05	> 25 µM	12.2	> 25 µM	7.22	> 25	5.26	> 25 µM	15.3	> 25 µM	9.85	> 25 µM	7.65	> 25 µM	9.47	> 25 µM
O=C(Nc1cc(Nc2ncccc2-c2ncnc3nc[nH]c23)ccc1F)c1cc(C(F)(F)F)cc(C(F)(F)F)c1	1.98	5.31 µM	2.73	> 10	1.54	> 10 µM	2.32	6.67 µM	1.04	2.79	2.12	5.67 µM	0.34	1.68 µM	2.38	> 10 µM	2.08	7.32 µM	0.474	> 10 µM
O=C(NCc1ccc(Cn2c(=O)sn(-c3ccccc3)c2=O)cc1)OCc1ccc2cccc(O)c2n1	1.41	3.13 µM	0.907	2.24	0.301	0.951 µM	0.785	> 24.3 µM	1.19	2.55	0.298	0.969 µM	1.34	2.64 µM	0.407	1.69 µM	1.7	8.87 µM	1.37	3.01 µM
NNCCc1ccc(NC(=O)CCCc2ccc(C(=O)Nc3ccccc3N)cc2)cc1	13.3	> 100 µM	28	> 100	5.77	> 100 µM	3.22	26.8 µM	17.4	> 100	45.6	> 100 µM	12.1	> 100 µM	8.13	> 100 µM	21.6	> 100 µM		
N#CCCN1C/C(=C/c2ccc(Br)cc2)C(=O)/C(=C/c2ccc(Br)cc2)C1			1.88	4.6			2.85	> 100 µM	2.95	11.4	1.07	2.9 µM	1.77	3.51 µM	1.89	3.81 µM	3.47	> 100 µM	2.09	5.32 µM
CCc1ccc2c(c1)C(=O)c1c-2n(CCCN=[N+]=[N-])c(=O)c2cc([N+](=O)[O-])ccc12	> 50	> 50 µM	> 50	> 50	> 50	> 50 µM			> 50	> 50	> 50	> 50 µM	> 50	> 50 µM	> 50	> 50 µM	> 50	> 50 µM	> 50	> 50 µM
COC(c1ccc(C(C)(C)C)cc1)(c1ccc(C(C)(C)C)cc1)c1ccc(C(C)(C)C)cc1		> 100 µM		> 100		> 100 µM		> 100 µM		> 100		> 100 µM		> 100 µM		> 100 µM		> 100 µM		
COc1ccc(-c2nn(-c3cccc(Cl)c3)cc2-c2cc(-c3ccccc3)[nH]c(=O)c2C#N)cc1	2.35	> 50 µM	7.94	> 50	9.23	> 50 µM	42.3	> 50 µM	1.24	10.4	27	> 50 µM	2.93	> 50 µM	3.59	20.8 µM	2.14	36 µM		
